Experimental findings from ChEMBL document CHEMBL1201862, “PubChem BioAssay data set” (2004) are described below.

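Five compound concentrations were applied to cells in 96-well plates for 48 hours; endpoints were derived by simple linear interpolation of the resulting dose-response curve. GI50 marks 50% less growth.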 Active and inactive are the calls of the source. Rule as the data show it: active = GI50 up to about 1.1 µM and inactive = higher. A value given as a limit tells only on which side of the number the result lay.

What all share (assay): growth of human tumour cells (NCI), 48 h
The test system of assay [1] is NCI/ADR-RES.
The subject of assay [2] is EKVX.
The test system of assay [3] is TK-10.
Assay [4] has as its system CAKI-1.
Assay [5] has as its system HCT-15.
For assay [6], the system named is SN12C.
Assay [7] relates to MDA-MB-231.
Assay [8] relates to SR.
Assay [9] concerns HCC 2998.
The subject of assay [10] is COLO 205.
For assay [11], the system named is SK-MEL-5.
Assay [12] deals with SF-539.
The subject of assay [13] is A498.
For assay [14], the system named is NCI-H226.
Assay [15] has as its system UO-31.
Assay [16] has as its system SK-MEL-28.
For assay [17], the system named is NCI-H460.
Assay [18] concerns MDA-MB-435.
Assay [19] relates to T47D.

For `C/C=C/c1cc2c(cc1O)CC[C@@H]1[C@@H]2CC[C@]2(C)[C@@H](O)CC[C@@H]12`, the GI50 in assay [1] is 0.0246 µM (active); in [2], 5.07 µM (inactive); in assay [3] it was 14.3 µM (inactive); in assay [4] it was 0.0144 µM (active); in assay [5] it was 0.069 µM; in assay [6], 0.08 µM (active). The GI50 in assay [7] was 0.317 µM (active); in assay [8] it was 0.0259 µM (active); in assay [9] it was 0.705 µM (active); in [10], 11.7 µM (inactive); in [11] it was 0.0289 µM (active); in assay [12], 0.0237 µM (active). Also, the GI50 in [13] is 0.146 µM (active); in [14] it was 0.226 µM (active); in assay [15], 0.372 µM (active); in assay [16], 1.49 µM (inactive); in [17], 0.0275 µM (active); in [18] it was 0.0102 µM (active). The GI50 in assay [19] was 14.8 µM (inactive).
For `O=C1C(NCCc2ccc(O)c(O)c2)=CC(=O)c2ncccc21`, the GI50 in assay [1] is 14.4 µM (inactive); in assay [2] it was 17.6 µM (inactive); in assay [3], 36.2 µM (inactive); in assay [4] it was 5.52 µM (inactive); in [5] it was 13.4 µM; in [6], 10.1 µM (inactive). The GI50 is 5.14 µM (inactive) in assay [7]; 9.98 µM (inactive) in assay [8]; 13 µM (inactive) in assay [9]; 14.7 µM (inactive) in [10]; 2.93 µM (inactive) in [11]; 14.2 µM (inactive) in [12]. The GI50 in assay [13] was 20.7 µM (inactive); in [14], 13.7 µM (inactive); in assay [15], 11.4 µM (inactive); in [16], 11.8 µM (inactive); in [17], 9.46 µM (inactive); in assay [18], 1.7 µM (inactive). The GI50 in [19] is 22.7 µM (inactive).
Turning to `NC(CSc1nc2ccccn2c1[N+](=O)[O-])C(=O)O` (stereo unspecified), the GI50 was > 100 µM (inactive) in [1]; > 100 µM (inactive) in assay [2]; > 100 µM (inactive) in assay [3]; > 100 µM (inactive) in assay [4]; greater than 100 µM in [5]; > 100 µM (inactive) in [6]. Also, the GI50 in [7] was > 100 µM (inactive); in assay [8], 61.1 µM (inactive); in assay [9], > 100 µM (inactive); in assay [10] it was > 100 µM (inactive); in assay [11], > 100 µM (inactive); in [12], > 100 µM (inactive). For the same molecule, the GI50 is > 100 µM (inactive) in assay [13]; > 100 µM (inactive) in assay [14]; 2.49 µM (inactive) in [15]; > 100 µM (inactive) in assay [16]; > 100 µM (inactive) in assay [17]; > 100 µM (inactive) in assay [18]. The GI50 in assay [19] is > 100 µM (inactive).
On to `Cc1nc2ccc(Cl)cc2c2c1CCN2c1ccccc1`, for which the GI50 was 11.7 µM (inactive) in [1]; 21.2 µM (inactive) in assay [2]; 12.7 µM (inactive) in [3]; 11.5 µM (inactive) in [4]; 17.3 µM in assay [5]; 0.975 µM (active) in assay [6]. The GI50 in assay [7] is 2.3 µM (inactive); in assay [8] it was 14.3 µM (inactive); in [9] it was 12.1 µM (inactive); in assay [10] it was 2.76 µM (inactive); in assay [11] it was 7.53 µM (inactive); in assay [12], 13.4 µM (inactive). The GI50 is 14.8 µM (inactive) in assay [13]; 7.89 µM (inactive) in assay [14]; 8.89 µM (inactive) in [15]; 14 µM (inactive) in assay [16]; 7.74 µM (inactive) in [17]; 7.62 µM (inactive) in [18]. Also, the GI50 in assay [19] is 14.5 µM (inactive).
